PMC8391104, “Molecular mechanism of Mad1 kinetochore targeting by phosphorylated Bub1” (EMBO Reports, 2021)
Where two headings read alike, the source gives them in different places. Where a SMILES comes first, the peptide text is derived from it. [ ]: non-standard residue; d: D form. pT = C[C@@H](OP(=O)(O)O)[C@H](N)C(=O)O

How the values were obtained:
Mad1^CTD = settings: ref Ji et al, 2017b, Zhang et al, cited from earlier work
Description: Formation of the Bub1‐Mad1 complex at kinetochores is dependent on phosphorylation of Bub1, a targeting mechanism conserved from yeast to humans (Heinrich et al, [2014]; London & Biggins, [2014a]; Silió et al, [2015]). In S. cerevisiae, phosphorylation of Bub1 at Thr453 and Thr455 by Mps1 promotes an interaction with Mad1^CTD, with pThr455 alone being sufficient for this interaction (London & Biggins, [2014a]; Ji et al, [2017b]). […] This is explained by our structure because a bulky phosphate at Thr464 would clash with the Bub1^CD1 binding interface of Mad1. Therefore, phosphorylation at Thr464 could provide a means to negatively regulate the Bub1‐Mad1 interaction in response to checkpoint signals ... || (+ 1 further places)

Peptide solubility = format: physicochemical; settings: 20 mM Hepes, pH 7.5, 100 mM NaCl, 1 mM TCEP, without DMSO
Description: Our ITC and sedimentation equilibrium experiments to measure the stoichiometry of the Mad1^CTD‐Bub1^CD1 interaction were performed with concentrations of Mad1 at 100 µM or lower, and titrating Bub1 until a twofold‐fourfold molar excess was obtained. However, our ^31P NMR experiments were conducted with around 0.25 to 0.5 mM of each, and still only one binding event was detected. […] DMSO interfered with ITC enthalpy changes and the NMR signal from DMSO obscured the protein peaks. In contrast, our Mad1^CTD‐Bub1^CD1 crystal structure was obtained through co‐crystallization of Mad1^CTD at a final concentration of 0.35 mM and Bub1^CD1 at 2.5 mM in 5% DMSO. The use of millimolar concentrations of peptide, and the presence of DMSO and isopropanol, required for Mad1^CTD‐Bub1^CD1 crystallization, may explain the association of a second peptide in the crystallized complex. […]
which are affected are already mapped out in Fig 5B, and this can be tracked across Bub1CD1 […]
We thank the reviewer for their positive and constructive comments.
1) On page 2, the first line of the third paragraph, Msp1 should be Mps1.
Response: Thank you, we have corrected this error.
2) Please provide a figure to show the omit map (2Fo−Fc map) for the BUB1 CD1 peptide.
Response: We have created a 2Fo-Fc omit map and included it in Fig EV2D and updated the figure legend accordingly. […]
2) p. 5, near bottom. The authors state that the singly phosphorylated Bub1 peptide (on Thr-461) is less soluble than the double phosphorylated peptide (also phosphorylated on Ser-459), which may explain previous reports that P-Ser-459 contributes to binding Mad1-CTD. It would be helpful if the authors could quantify this reduced solubility.
Response: We realise that our comment on the reduced solubility of the singly phosphorylated pT461 peptide is likely confusing, so we have removed this comment.
In terms of quantifying the reduced solubility, we observed an approximately 2-fold reduction of the solubility of the singly phosphorylated peptide. […]

[1] = biological target: T1, human Mad1^CTD (WT) homodimer (Homo sapiens, UniProt Q9Y6D9); assay: ITC of Bub1^CD1 peptides binding to wild-type Mad1^CTD; settings: N‐terminal tryptophan peptide
T1 construct: human Mad1^CTD homodimer (residues 597–718); double Strep His6-tag with TEV site (N, cleaved yes); made in house; host or cells: E. coli Rosetta 2 (DE3)
T1 sequence (Q9Y6D9 597-718): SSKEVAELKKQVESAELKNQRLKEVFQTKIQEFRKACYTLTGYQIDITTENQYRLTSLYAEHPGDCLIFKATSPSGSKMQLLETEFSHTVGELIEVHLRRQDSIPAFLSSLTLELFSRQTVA
Description: The coding region of Mad1^597–719 was cloned by USER® (NEB) into a modified pRSFDuet‐1 vector (71341‐3, Sigma‐Aldrich) with an N‐terminal double Strep His6‐tag, followed by a tobacco etch virus (TEV) protease cleavage site (Demple & Linn, [1982]; Bitinaite et al, [1992]). Mad1 mutants were generated using the QuikChange™ Lightning Site‐Directed Mutagenesis Kit (Agilent), developed by Stratagene Inc. (La Jolla, CA) (Nøhr & Kristiansen, [2003]). Mad1 constructs were transformed into Rosetta™ 2 (DE3) Singles™ Competent Cells (71400, Novagen) for expression. Expression was induced with 0.5 mM IPTG and grown overnight at 18°C. Cells were lysed in 25 mM HEPES pH 8.1, 250 mM NaCl, 2 mM DTT, 5% glycerol, 2 mM EDTA supplemented with lysozyme, and Complete™ EDTA‐free protease inhibitors (Roche). Proteins were purified over a Strep‐Tactin Superflow Plus column (QIAGEN) and cleaved with TEV protease overnight at 4°C. The cleaved Mad1^CTD was then diluted to 50 mM NaCl, purified over an anion exchange (Resource Q, GE Healthcare) column, followed by size exclusion chromatography using a Superdex 75 Increase column (GE Healthcare). Mad1^CTD was concentrated to 35 mg/ml in a buffer of 20 mM HEPES pH 7.5, 100 mM NaCl and 1 mM TCEP.
Bub1^CD1 peptides were ordered from Designer Bioscience UK, at 95% purity. The full peptide sequence used in this study was (W)KVQP{pS}P{pT}VHTKEALGFIMNMFQAPTS. (W) = peptide with an additional N‐terminal tryptophan was used to confirm peptide concentration in stoichiometry studies.
Isothermal titration calorimetry (ITC) was performed using an Auto‐iTC200 instrument (Malvern Instruments, Malvern, UK) at 20°C. Mad1^CTD and Bub1^CD1 peptide mutants were dialysed into 20 mM HEPES pH 7.5, 100 mM NaCl, 1 mM TCEP. For each titration between 30–100 µM of Mad1 was pipetted into the calorimeter cell. The Bub1^CD1 peptides at 0.3–1.5 mM were titrated into the cell consisting of one 0.5 µl injection followed by 19 injections of 2 µl each. The changes in the heat released were integrated over the entire titration and fitted to a single‐site binding model using the MicroCal PEAQ‐ITC Analysis Software 1.0.0.1258 (Malvern Instruments). Titrations were performed in triplicate. Calculations for stoichiometry were based on the molar concentrations of dimeric Mad1^CTD.

Mad1CTD = assay: Mad1-Cdc20 interaction; format: binding
Description: Response: Thank you for pointing out this paper. We have now mentioned this observation in the text: bottom of page 10.
2-1) Have the authors analyzed if Mad1 can bind directly to Cdc20 and is this influenced by Bub1 CD1 as proposed in Ji et al 2017? This would have important implications for understanding SAC signaling also in light of the two recent Science papers on this topic.
Response: We have not carefully analysed the Mad1-Cdc20 interaction. We have replicated […]
blotting) to Mad1CTD (data not shown).
2-2) The authors are focused on the model that Bub1 positions Cdc20 close to Mad1 but this model is not consistently supported by the literature (see for example: Di Fiore Dev Cell 2016 where a Cdc20 mutant unable to bind ABBA motifs still loads Mad2 and Zhang et al 2019, PMID: 30782962 where Bub1 without an ABBA motif still supports a robust […]
Response: Thank you for pointing this out. We agree that we predominately focused on the model that the Bub1 ABBA/KEN motifs position Cdc20 close to Mad1, and that we should have stated more clearly that this model is still debated.
Two changes to the text were made:
1) In the Introduction (page 2) where we had previously already discussed how this model is debated, we added the (Zhang et al, 2019) reference. […]
4) In figure 5A could the authors indicates the peaks they want the readers to focus on that are also discussed in the text. […]

CC[C@H](C)[C@H](NC(=O)[C@H](Cc1ccccc1)NC(=O)CNC(=O)[C@H](CC(C)C)NC(=O)[C@H](C)NC(=O)[C@H](CCC(=O)O)NC(=O)[C@H](CCCCN)NC(=O)[C@@H](NC(=O)[C@H](Cc1c[nH]cn1)NC(=O)[C@@H](NC(=O)[C@@H](NC(=O)[C@@H]1CCCN1C(=O)[C@H](CO)NC(=O)[C@@H]1CCCN1C(=O)[C@H](CCC(N)=O)NC(=O)[C@@H](NC(=O)[C@@H](N)CCCCN)C(C)C)[C@@H](C)OP(=O)(O)O)C(C)C)[C@@H](C)O)C(=O)N[C@@H](CCSC)C(=O)N[C@@H](CC(N)=O)C(=O)N[C@@H](CCSC)C(=O)N[C@@H](Cc1ccccc1)C(=O)N[C@@H](CCC(N)=O)C(=O)N[C@@H](C)C(=O)N1CCC[C@H]1C(=O)N[C@H](C(=O)N[C@@H](CO)C(=O)O)[C@@H](C)O [SpT* CD1] (H-KVQPSP[pT]VHTKEALGFIMNMFQAPTS-OH; N-terminus and C-terminus assumed)
Mad1 binding reported previously, in words (Mad1^CTD; listed as pThr461): sufficient to promote a strong Bub1‐Mad1 interaction
Mad1 binding reported previously, in words (Mad1^CTD; listed as singly phosphorylated pThr461 peptide): significant reduction in binding
reduction of solubility versus doubly phosphorylated peptide (Peptide solubility): approximately 2 fold
solubility (Peptide solubility): about 0.7 mM

(W)KVQP{pS}P{pT}VHTKEALGFIMNMFQAPTS [peptide with an additional N‐terminal tryptophan was used to confirm peptide concentration in stoichiometry studies]
KD and stoichiometry compared with peptide lacking N-terminal Trp [1]: The same KD and stoichiometry

phosphorylated Bub1-Bub3: phosphorylated Bub1-Bub3 complex
effect on the Mad1-Cdc20 interaction, in words (Mad1CTD): does not detectably enhance the Mad1-Cdc20 interaction
